From PubChem BioAssay (NCI)
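How tested: cells in 96-well plates exposed to compound for 48 hours at five concentrations. GI50: concentration for 50% inhibition of growth. TGI denotes the concentration required for complete inhibition of growth.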

Tests used:
Assay in all cases: NCI tumour cell line growth inhibition, 48 h
CAKI-1 renal = system: CAKI-1 renal
HCT-15 colon = system: HCT-15 colon
K-562 leukemia = system: K-562 leukemia
M14 melanoma = system: M14 melanoma
OVCAR-4 ovarian = system: OVCAR-4 ovarian
PC-3 prostate = system: PC-3 prostate
SF-268 CNS = system: SF-268 CNS
SK-MEL-5 melanoma = system: SK-MEL-5 melanoma
U251 CNS = system: U251 CNS
UACC-257 melanoma = system: UACC-257 melanoma

| SMILES | TGI (CAKI-1 renal) [µM] | TGI (HCT-15 colon) [µM] | TGI (K-562 leukemia) [µM] | TGI (M14 melanoma) [µM] | TGI (OVCAR-4 ovarian) [µM] | TGI (PC-3 prostate) [µM] | TGI (SF-268 CNS) [µM] | TGI (SK-MEL-5 melanoma) [µM] | TGI (U251 CNS) [µM] | TGI (UACC-257 melanoma) [µM] | GI50 (CAKI-1 renal) [µM] | GI50 (HCT-15 colon) [µM] | GI50 (K-562 leukemia) [µM] | GI50 (M14 melanoma) [µM] | GI50 (OVCAR-4 ovarian) [µM] | GI50 (PC-3 prostate) [µM] | GI50 (SF-268 CNS) [µM] | GI50 (SK-MEL-5 melanoma) [µM] | GI50 (U251 CNS) [µM] | GI50 (UACC-257 melanoma) [µM] |
| --- | --- | --- | --- | --- | --- | --- | --- | --- | --- | --- | --- | --- | --- | --- | --- | --- | --- | --- | --- | --- |
| CNC1Cc2c[nH]c3cccc(c23)C12C=C(C)C(=O)O2 (configuration not stated) | > 100 | > 100 | > 100 | > 100 | > 100 | > 100 | > 100 | > 100 | > 100 | > 100 | – | – | – | – | – | – | – | – | – | – |
| Cc1cc2c(c(O)c1-c1c(C)cc(O)c3c1C(=O)C=CC3=O)C(=O)C=CC2=O | 1.48 | – | 0.23 | > 100 | 10.3 | 19 | – | 14.5 | 32.1 | – | – | – | – | – | – | – | – | – | – | – |
| C[C@@H]1C(=O)O[C@H]1[C@H](O)CO | > 100 | > 100 | – | > 100 | > 100 | > 100 | – | > 100 | > 100 | > 100 | – | – | – | – | – | – | – | – | – | – |
| C[Si](C)(C)c1ccc(-c2c3ccc(-c4cc(Br)cc(Br)c4)nc3nc3nc(-c4cc(Br)cc(Br)c4)ccc23)cc1 | > 100 | > 100 | – | > 100 | > 100 | > 100 | > 100 | > 100 | > 100 | > 100 | – | – | – | – | – | – | – | – | – | – |
| COc1cc(/C=C2\N=C(c3ccccc3)N(c3ccc(C(=O)c4ccccc4)cc3N3C(=O)/C(=C/c4ccc(O)c(OC)c4)N=C3c3ccccc3)C2=O)ccc1O | 71 | 40.3 | 53 | 25.1 | 84.4 | 26.7 | 74 | 20.2 | 37.5 | 39.6 | – | – | – | – | – | – | – | – | – | – |
| O=C1c2cccnc2C(=O)c2c1c(C(=O)OCCN1CCCCC1)c1ccccn21 | 1.53 | 0.984 | 1.67 | 0.0656 | 2.3 | 9.59 | 0.365 | 0.113 | 0.179 | 0.395 | 0.0269 | 0.0416 | 0.0484 | 0.0147 | 0.655 | 0.16 | 0.0345 | 0.0251 | 0.0183 | 0.0878 |
| C=C1C(=O)O[C@@H]2/C=C(\C)CC/C=C(\C)CC[C@@]12O | 2.79 | 9.27 | 12.6 | 10.5 | 4.86 | 15.6 | 13.8 | 15.5 | 19.7 | 31.7 | – | – | – | – | – | – | – | – | – | – |
| CCCCCCCCCCCCCC1=C(O)C(=O)C(CC2=C(O)C(=O)C(CCCCCCCCCCCCC)=C(O)C2=O)=C(O)C1=O | > 100 | – | > 100 | > 100 | – | > 100 | > 100 | > 100 | > 100 | > 100 | – | – | – | – | – | – | – | – | – | – |
| CC(=O)O[C@H]1CC[C@H]2[C@@H]3CCC4=CC(=O)C=C[C@]4(O)[C@H]3CC[C@]12C | > 100 | > 100 | 27.5 | > 100 | > 100 | > 93.1 | – | 23.4 | > 100 | > 81.9 | – | – | – | – | – | – | – | – | – | – |
| CC(C)(C)c1ccc2c(c1)C#Cc1cc(C(C)(C)C)ccc1OCCCO2 | > 100 | > 100 | > 100 | > 100 | > 100 | > 100 | > 100 | > 100 | > 100 | > 100 | – | – | – | – | – | – | – | – | – | – |
| CC(=O)Nc1cccc(N2C(=O)/C(=C\c3cccc(Oc4ccccc4)c3)S(=O)(=O)C2c2ccccc2)c1 (configuration not stated) | > 100 | > 100 | 79.2 | > 100 | > 100 | > 100 | – | > 100 | > 100 | > 100 | – | – | – | – | – | – | – | – | – | – |
| CCCCCCCCCCCCCCCCCCNc1ccn(C2OC(CO)C(OP(=O)(O)OCC(O)COP(=O)(O)OCC3OC(n4cc(F)c(NCCCCCCCCCCCCCCCCCC)nc4=O)CC3O)C2O)c(=O)n1 (configuration not stated) | > 50 | > 50 | > 50 | > 50 | > 50 | > 50 | > 50 | > 50 | > 50 | > 50 | – | – | – | – | – | – | – | – | – | – |
| Nc1ccc(O)c2c1C(=O)c1c(N)ccc(O)c1C2=O | > 100 | > 100 | > 100 | > 100 | > 100 | – | > 100 | > 100 | > 100 | > 100 | – | – | – | – | – | – | – | – | – | – |
| CN(Cc1cn(O)c2nc(=N)nc(N)c-2n1)c1ccc(C(=O)NC23CC4CC(CC(C4)C2)C3)cc1 | > 100 | > 100 | > 100 | > 100 | – | > 100 | 81.4 | > 100 | > 100 | > 100 | – | – | – | – | – | – | – | – | – | – |
| CC(C)(C)OC(=O)N1C(OP(=O)(Oc2ccccc2)Oc2ccccc2)=CSc2ccccc21 | 92.3 | > 100 | > 100 | 68.6 | > 100 | > 100 | > 100 | > 100 | > 100 | > 100 | – | – | – | – | – | – | – | – | – | – |
| CCOC(=O)C1(C/C=C/CCl)CCCC1=O (configuration not stated) | 79.5 | 40 | – | 38.5 | 93.7 | > 100 | 68.1 | 33.9 | 86.7 | > 100 | – | – | – | – | – | – | – | – | – | – |
| S=c1c2[nH]cnc2ncn1CCSC1=NC=NC2=NC=NC21 (configuration not stated) | > 100 | > 100 | > 100 | > 100 | > 100 | > 100 | > 100 | > 100 | > 100 | > 100 | – | – | – | – | – | – | – | – | – | – |
